The text below walks through data of patent US9102582B2, “Method of producing alcohols” (priority 2009, dated 2015).

The conditions of series [1]: cited from earlier work.
The nature of another series: solubility in water. The settings on record: same solubility expressed in moles.

As for `CBr` [methyl bromide], in series [1], the solubility in water is listed as 0.09 grams per 100 ml of water. Also, the “solubility in water (molar)” value in the series “solubility in water” is reported as 0.0094 moles per 1000 ml of water.
With `CCBr` [ethyl bromide], in series [1], the solubility in water was 0.91 grams per 100 ml of water. In addition, the “solubility in water (molar)” value in the series “solubility in water” is 0.0835 moles per 1000 ml of water.
Consider `CCCC(=O)OCC` [ethyl butyrate], for which the solubility in water in series [1] is 0.68 grams per 100 ml of water. Also, the “solubility in water (molar)” value in the series “solubility in water” is 0.059 moles per 1000 ml of water.
On to `COC(=O)c1ccccc1` [methyl benzoate], for which the solubility in water in series [1] is reported as 0.157 grams per 100 ml of water. The “solubility in water (molar)” value in the series “solubility in water” is recorded as 0.001532 moles per 1000 ml of water.
